Results: the supplement of paper PMC10627819

Experiments:
[1] = tested on: S. pneumoniae D39V; assay: fitness (endpoint OD595 vs no drug) (fraction); higher = more growth
Outline: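 Fitness compares growth at the stationary-phase transition with the robust mean of no-drug control wells, as a ratio of optical densities. The ratio is capped at 1. Wells of 384-well plates held 30 µl, or 55 µl for S. pneumoniae, inoculated at OD595 0.01. Readings at OD595 every 30 min for 14 h at 37 °C were corrected against the first reading.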

[2] = tested on: B. subtilis 168; assay: Bliss interaction score (quartile over a dose matrix) (fitness difference); higher = more antagonism (negative = synergy)
Outline: (§1)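 Fitness was OD595 at entry into stationary phase divided by the plate's robust no-drug mean and capped at 1; single-drug fitness was inferred from combination data. The Bliss score is observed minus expected (product) fitness, summarised by quartiles over technical, biological and donor/recipient replicates.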

[3] = tested on: S. pneumoniae D39V; assay: as above
Outline: as §1

[4] = tested on: S. aureus DSM 20231; assay: as above
Outline: as §1

[5] = tested on: S. aureus Newman; assay: as above
Outline: as §1
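Throughout, for Bliss interaction score (quartile over a dose matrix): first quartile when negative (synergy) and third quartile when positive (antagonism).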

CC[C@H]1OC(=O)[C@H](C)[C@@H](O[C@H]2C[C@@](C)(OC)[C@@H](O)[C@H](C)O2)[C@H](C)[C@@H](O[C@@H]2O[C@H](C)C[C@H](N(C)C)[C@H]2O)[C@](C)(OC)C[C@@H](C)C(=O)[C@H](C)[C@@H](O)[C@]1(C)O [Clarithromycin] + CCN(CC)CCOC(=O)c1ccc(N)cc1 [Procaine]
fitness, [1], one replicate
Conditions | first compound 0.007812 µg/mL | first compound 0.01562 µg/mL | first compound 0.03125 µg/mL | first compound 0.0625 µg/mL | first compound 0.125 µg/mL | first compound 0.25 µg/mL
partner 85.5 µg/mL | 0.962 | 0.921 | 0.691 | 0.659 | 0.251 | 0.102
partner 171 µg/mL | 0.983 | 0.903 | 0.702 | 0.77 | 0.284 | 0.169
partner 342 µg/mL | 0.993 | 0.923 | 0.719 | 0.595 | 0.464 | 0.33

fitness, [1]
Conditions | first compound 0.07 µg/mL | first compound 0.14 µg/mL | first compound 0.28 µg/mL
partner 85.5 µg/mL | 0.125 | 0.0737 | 0.0531
partner 171 µg/mL | 0.141 | 0.065 | 0.0466
partner 342 µg/mL | 0.141 | 0.0668 | 0.061

Conditions | Bliss interaction score
[2] | 0.0395
[3] | 0.0576
[4] | 0.0493
[5] | 0.0711

CC[C@H]1OC(=O)[C@H](C)[C@@H](O[C@H]2C[C@@](C)(OC)[C@@H](O)[C@H](C)O2)[C@H](C)[C@@H](O[C@@H]2O[C@H](C)C[C@H](N(C)C)[C@H]2O)[C@](C)(OC)C[C@@H](C)C(=O)[C@H](C)[C@@H](O)[C@]1(C)O [Clarithromycin] + CN1C2=CC=CC=C2N=C3C1=CC=CC3=O [Pyocyanin]
fitness, [1], one replicate
Conditions | first compound 0.007812 µg/mL | first compound 0.01562 µg/mL | first compound 0.03125 µg/mL | first compound 0.0625 µg/mL | first compound 0.125 µg/mL | first compound 0.25 µg/mL
partner 0.325 µg/mL | 0.965 | 0.884 | 0.682 | 0.757 | 0.486 | 0.112
partner 0.65 µg/mL | 0.928 | 0.88 | 0.651 | 0.75 | 0.501 | 0.273
partner 1.3 µg/mL | 0.747 | 0.695 | 0.525 | – | – | –

fitness, [1]
Conditions | first compound 0.07 µg/mL | first compound 0.14 µg/mL | first compound 0.28 µg/mL
partner 0.325 µg/mL | 0.0912 | 0.0902 | 0.0525
partner 0.65 µg/mL | 0.0867 | 0.0888 | 0.0453
partner 1.3 µg/mL | 0.0798 | 0.0783 | 0.0672

Conditions | Bliss interaction score
[2] | 0.0334
[3] | -0.0433
[4] | -0.0903
[5] | -0.0697

CC[C@H]1OC(=O)[C@H](C)[C@@H](O[C@H]2C[C@@](C)(OC)[C@@H](O)[C@H](C)O2)[C@H](C)[C@@H](O[C@@H]2O[C@H](C)C[C@H](N(C)C)[C@H]2O)[C@](C)(OC)C[C@@H](C)C(=O)[C@H](C)[C@@H](O)[C@]1(C)O [Clarithromycin] + CN(C)C(=O)C(CCN1CCC(O)(c2ccc(Cl)cc2)CC1)(c1ccccc1)c1ccccc1 [Loperamide]
fitness, [1], one replicate
Conditions | first compound 0.007812 µg/mL | first compound 0.01562 µg/mL | first compound 0.03125 µg/mL | first compound 0.0625 µg/mL | first compound 0.125 µg/mL | first compound 0.25 µg/mL
partner 20 µg/mL | ≥ 1 | ≥ 1 | 0.711 | – | – | –
partner 40 µg/mL | ≥ 1 | 0.995 | 0.768 | – | – | –
partner 68.57 µg/mL | – | – | – | 0.913 | 0.515 | 0.498
partner 80 µg/mL | 0.0268 | 0.0618 | 0.0304 | – | – | –

fitness, [1]
Conditions | first compound 0.0625 µg/mL | first compound 0.07 µg/mL | first compound 0.125 µg/mL | first compound 0.14 µg/mL | first compound 0.28 µg/mL
partner 17.14 µg/mL | 0.788 | – | 0.541 | – | –
partner 20 µg/mL | – | 0.168 | – | 0.0771 | 0.0614
partner 34.28 µg/mL | 0.751 | – | 0.491 | – | –
partner 40 µg/mL | – | 0.173 | – | 0.0855 | 0.0994
partner 80 µg/mL | – | 0.0672 | – | 0.0833 | 0.047

Conditions | Bliss interaction score
[2] | 0.0248
[3] | 0.129
[4] | 0.18
[5] | -0.0355

CC[C@H]1OC(=O)[C@H](C)[C@@H](O[C@H]2C[C@@](C)(OC)[C@@H](O)[C@H](C)O2)[C@H](C)[C@@H](O[C@@H]2O[C@H](C)C[C@H](N(C)C)[C@H]2O)[C@](C)(OC)C[C@@H](C)C(=O)[C@H](C)[C@@H](O)[C@]1(C)O [Clarithromycin] + CN(C)c1cc(NC(=O)CNC(C)(C)C)c(O)c2c1C[C@H]1C[C@H]3[C@H](N(C)C)C(O)=C(C(N)=O)C(=O)[C@@]3(O)C(O)=C1C2=O [Tigecycline]
fitness, [1], one replicate
Conditions | first compound 0.007812 µg/mL | first compound 0.01562 µg/mL | first compound 0.03125 µg/mL
partner 0.65 µg/mL | 0.848 | 0.757 | 0.646
partner 1.3 µg/mL | 0.813 | 0.749 | 0.633
partner 2.6 µg/mL | 0.815 | 0.747 | 0.619

fitness, [1]
Conditions | first compound 0.0625 µg/mL | first compound 0.07 µg/mL | first compound 0.125 µg/mL | first compound 0.14 µg/mL | first compound 0.25 µg/mL | first compound 0.28 µg/mL
partner 0.325 µg/mL | – | 0.111 | – | 0.071 | – | 0.0539
partner 0.65 µg/mL | 0.589 | 0.0865 | 0.253 | 0.0638 | 0.113 | 0.0627
partner 1.3 µg/mL | 0.506 | 0.0861 | 0.213 | 0.0727 | 0.103 | 0.068
partner 2.6 µg/mL | 0.494 | – | 0.198 | – | 0.119 | –

Conditions | Bliss interaction score
[2] | 0.0852
[3] | -0.0848
[4] | 0.0343
[5] | -0.0401

CC[C@H]1OC(=O)[C@H](C)[C@@H](O[C@H]2C[C@@](C)(OC)[C@@H](O)[C@H](C)O2)[C@H](C)[C@@H](O[C@@H]2O[C@H](C)C[C@H](N(C)C)[C@H]2O)[C@](C)(OC)C[C@@H](C)C(=O)[C@H](C)[C@@H](O)[C@]1(C)O [Clarithromycin] + CN(N=O)C(=O)N[C@@H](C=O)[C@@H](O)[C@H](O)[C@H](O)CO [Streptozotocin]
fitness, [1], one replicate
Conditions | first compound 0.007812 µg/mL | first compound 0.01562 µg/mL | first compound 0.03125 µg/mL | first compound 0.0625 µg/mL | first compound 0.125 µg/mL | first compound 0.25 µg/mL
partner 1.2 µg/mL | 0.873 | 0.804 | 0.673 | 0.674 | 0.263 | 0.0915
partner 2.4 µg/mL | 0.877 | 0.815 | 0.672 | 0.713 | 0.32 | 0.134
partner 4.8 µg/mL | 0.87 | 0.802 | 0.661 | 0.537 | 0.0252 | 0

fitness, [1]
Conditions | first compound 0.07 µg/mL | first compound 0.14 µg/mL | first compound 0.28 µg/mL
partner 1.2 µg/mL | 0.115 | 0.0648 | 0.031
partner 2.4 µg/mL | 0.119 | 0.0981 | 0.0724
partner 4.8 µg/mL | 0.0916 | 0.0774 | 0.033

Conditions | Bliss interaction score
[2] | 0.0503
[3] | 0.0525
[4] | 0.0361
[5] | -0.0313

CC[C@H]1OC(=O)[C@H](C)[C@@H](O[C@H]2C[C@@](C)(OC)[C@@H](O)[C@H](C)O2)[C@H](C)[C@@H](O[C@@H]2O[C@H](C)C[C@H](N(C)C)[C@H]2O)[C@](C)(OC)C[C@@H](C)C(=O)[C@H](C)[C@@H](O)[C@]1(C)O [Clarithromycin] + CN[C@@H]1[C@H](O)[C@H](NC)[C@H]2O[C@@]3(O)C(=O)C[C@@H](C)O[C@H]3O[C@@H]2[C@H]1O [Spectinomycin]
fitness, [1], one replicate
Conditions | first compound 0.007812 µg/mL | first compound 0.01562 µg/mL | first compound 0.03125 µg/mL | first compound 0.0625 µg/mL | first compound 0.125 µg/mL | first compound 0.25 µg/mL
partner 4 µg/mL | 0.836 | 0.755 | 0.669 | 0.725 | 0.326 | 0.156
partner 8 µg/mL | 0.741 | 0.72 | 0.658 | 0.676 | 0.221 | 0.114
partner 16 µg/mL | 0.644 | 0.664 | 0.528 | – | – | –

fitness, [1]
Conditions | first compound 0.07 µg/mL | first compound 0.14 µg/mL | first compound 0.28 µg/mL
partner 4 µg/mL | 0.138 | 0.0851 | 0.0564
partner 8 µg/mL | 0.138 | 0.0752 | 0.0774
partner 16 µg/mL | 0.114 | 0.0949 | 0.0947

Conditions | Bliss interaction score
[2] | -0.0725
[3] | -0.0344
[4] | -0.142
[5] | -0.181
